Several values for one entry are separate records, joined by “and”; a condition that tells them apart may be missing. Equal values may be shown once.
Test: NHP health screening: serum chemistry
Type: in vivo, rhesus macaques (Macaca mulatta)
[1] = End of study bleed, Mean of treated F animals
[2] = End of study bleed, individual treated animals
[3] = Mid-dosing bleed, Mean of treated females
[4] = Mid-dosing bleed, treated animals, individual values

Procedure: Under light-anesthesia/sedation, peripheral blood samples were collected from each animal prior to treatment and at 7 time points following. Blood analysis (CBC and serum chemistry assays) and physical exams to evaluate the health of the study animals were performed on each animal prior to the beginning of the study and also at three time points during the treatment protocol (see Supplementary data).

Cc1c(C(=O)N[C@H](C(=O)OCC2CCOCC2)C(C)C)ccc2c1B(O)OC2 [AN15368]
Agap [1]: 15 Meq/L
Alb [1]: 3.916 G/Dl
Alp [1]: 92.2632 Iu/L
Alt [1]: 53.7368 Iu/L
Ast [1]: 63.5789 Iu/L
Bun [1]: 17.7895 Mg/Dl
Ca [1]: 9.232 Mg/Dl
Chol [1]: 138.105 mg/dL
Ck [1]: 2260.42 Iu/L
Cl [1]: 109.526 Meq/L
Crea [1]: 0.7289 Mg/Dl
Fe [1]: 111.895 µg/dL
Ggt [1]: 45 Iu/L
Glob [1]: 2.684 G/Dl
Gluc [1]: 62.2105 Mg/Dl
K [1]: 3.584 Meq/L
Ldh [1]: 581.684 Iu/L
Na [1]: 147.474 Meq/L
Osmo [1]: 284.105 Mosm/Kg
Phos [1]: 3.284 Mg/Dl
Tbil [1]: 0.2074 Mg/Dl
Tco2 [1]: 26.6842 Meq/L
Tibc [1]: 363.263 µg/dL
Tp [1]: 6.589 G/Dl
Trig [1]: 78.7895 Mg/Dl
Agap [2]: 18 Meq/L and 14 Meq/L and 15 Meq/L and 13 Meq/L and 17 Meq/L and 16 Meq/L
Alb [2]: 4.2 G/Dl and 3.6 G/Dl and 3.9 G/Dl and 3.5 G/Dl and 4 G/Dl and 3.3 G/Dl and 2.9 G/Dl and 4.4 G/Dl and 3.8 G/Dl and 4.7 G/Dl and 4.3 G/Dl
Alp [2]: 132 Iu/L and 94 Iu/L and 68 Iu/L and 54 Iu/L and 70 Iu/L and 117 Iu/L and 84 Iu/L and 65 Iu/L and 131 Iu/L and 60 Iu/L and 92 Iu/L and 150 Iu/L and 113 Iu/L and 97 Iu/L and 63 Iu/L and 80 Iu/L and 71 Iu/L and 89 Iu/L and 76 Iu/L
Alt [2]: 39 Iu/L and 36 Iu/L and 27 Iu/L and 30 Iu/L and 87 Iu/L and 53 Iu/L and 95 Iu/L and 29 Iu/L and 76 Iu/L and 195 Iu/L and 45 Iu/L and 25 Iu/L and 70 Iu/L and 69 Iu/L and 18 Iu/L and 22 Iu/L
Ast [2]: 34 Iu/L and 33 Iu/L and 18 Iu/L and 23 Iu/L and 28 Iu/L and 35 Iu/L and 32 Iu/L and 29 Iu/L and 21 Iu/L and 199 Iu/L and 392 Iu/L and 24 Iu/L and 25 Iu/L and 203 Iu/L and 16 Iu/L
Bun [2]: 19 Mg/Dl and 14 Mg/Dl and 15 Mg/Dl and 17 Mg/Dl and 18 Mg/Dl and 16 Mg/Dl and 13 Mg/Dl and 38 Mg/Dl and 29 Mg/Dl and 11 Mg/Dl
Ca [2]: 9.6 Mg/Dl and 9.1 Mg/Dl and 8.7 Mg/Dl and 9.3 Mg/Dl and 9.5 Mg/Dl and 9.2 Mg/Dl and 8.8 Mg/Dl and 8.5 Mg/Dl and 8.2 Mg/Dl and 9.7 Mg/Dl and 9.4 Mg/Dl and 10.1 Mg/Dl
Chol [2]: 127 mg/dL and 152 mg/dL and 153 mg/dL and 132 mg/dL and 115 mg/dL and 168 mg/dL and 197 mg/dL and 162 mg/dL and 129 mg/dL and 141 mg/dL and 101 mg/dL and 85 mg/dL and 158 mg/dL and 126 mg/dL and 118 mg/dL and 151 mg/dL and 136 mg/dL and 110 mg/dL
Ck [2]: 224 Iu/L and 407 Iu/L and 173 Iu/L and 274 Iu/L and 432 Iu/L and 485 Iu/L and 1737 Iu/L and 198 Iu/L and 506 Iu/L and 146 Iu/L and 14833 Iu/L and 15016 Iu/L and 403 Iu/L and 468 Iu/L and 205 Iu/L and 374 Iu/L and 6914 Iu/L and 290 Iu/L and 124 Iu/L and 171 Iu/L
Cl [2]: 111 Meq/L and 110 Meq/L and 109 Meq/L and 107 Meq/L and 104 Meq/L and 108 Meq/L and 112 Meq/L
Crea [2]: 0.7 Mg/Dl and 0.59 Mg/Dl and 0.62 Mg/Dl and 0.68 Mg/Dl and 0.76 Mg/Dl and 0.63 Mg/Dl and 0.77 Mg/Dl and 0.78 Mg/Dl and 0.71 Mg/Dl and 0.75 Mg/Dl and 1.07 Mg/Dl and 0.83 Mg/Dl and 0.58 Mg/Dl and 0.57 Mg/Dl and 0.74 Mg/Dl and 0.85 Mg/Dl and 0.66 Mg/Dl
Fe [2]: 161 µg/dL and 147 µg/dL and 112 µg/dL and 151 µg/dL and 121 µg/dL and 108 µg/dL and 127 µg/dL and 95 µg/dL and 137 µg/dL and 110 µg/dL and 23 µg/dL and 34 µg/dL and 87 µg/dL and 133 µg/dL and 143 µg/dL and 32 µg/dL and 183 µg/dL and 103 µg/dL and 93 µg/dL
Ggt [2]: 49 Iu/L and 44 Iu/L and 32 Iu/L and 38 Iu/L and 45 Iu/L and 53 Iu/L and 43 Iu/L and 48 Iu/L and 60 Iu/L and 51 Iu/L and 47 Iu/L and 30 Iu/L and 41 Iu/L and 67 Iu/L
Glob [2]: 2.4 G/Dl and 3.1 G/Dl and 2.5 G/Dl and 2.6 G/Dl and 2.8 G/Dl and 2.9 G/Dl and 2.7 G/Dl and 3.3 G/Dl and 3.2 G/Dl and 2.3 G/Dl and 2.2 G/Dl
Gluc [2]: 77 Mg/Dl and 54 Mg/Dl and 69 Mg/Dl and 48 Mg/Dl and 57 Mg/Dl and 50 Mg/Dl and 62 Mg/Dl and 56 Mg/Dl and 65 Mg/Dl and 75 Mg/Dl and 83 Mg/Dl and 64 Mg/Dl and 58 Mg/Dl and 73 Mg/Dl and 55 Mg/Dl and 63 Mg/Dl
K [2]: 3.5 Meq/L and 4 Meq/L and 3.4 Meq/L and 3.3 Meq/L and 3.6 Meq/L and 3.7 Meq/L and 3.9 Meq/L and 2.9 Meq/L and 3.8 Meq/L and 4.1 Meq/L
Ldh [2]: 508 Iu/L and 636 Iu/L and 140 Iu/L and 492 Iu/L and 348 Iu/L and 387 Iu/L and 493 Iu/L and 399 Iu/L and 281 Iu/L and 157 Iu/L and 1914 Iu/L and 2200 Iu/L and 274 Iu/L and 247 Iu/L and 194 Iu/L and 1688 Iu/L and 241 Iu/L and 292 Iu/L and 122 Iu/L
Na [2]: 148 Meq/L and 145 Meq/L and 149 Meq/L and 146 Meq/L and 147 Meq/L
Osmo [2]: 286 Mosm/Kg and 278 Mosm/Kg and 284 Mosm/Kg and 285 Mosm/Kg and 280 Mosm/Kg and 291 Mosm/Kg and 283 Mosm/Kg and 282 Mosm/Kg
Phos [2]: 3.1 Mg/Dl and 3.5 Mg/Dl and 3.7 Mg/Dl and 2.5 Mg/Dl and 4.3 Mg/Dl and 4.5 Mg/Dl and 4.2 Mg/Dl and 3 Mg/Dl and 2.4 Mg/Dl and 2.3 Mg/Dl and 3.4 Mg/Dl and 3.2 Mg/Dl and 2.7 Mg/Dl and 3.3 Mg/Dl and 4.8 Mg/Dl and 4 Mg/Dl
Tbil [2]: 0.17 Mg/Dl and 0.1 Mg/Dl and 0.12 Mg/Dl and 0.16 Mg/Dl and 0.45 Mg/Dl and 0.41 Mg/Dl and 0.15 Mg/Dl and 0.14 Mg/Dl and 0.84 Mg/Dl and 0.19 Mg/Dl
Tco2 [2]: 23 Meq/L and 25 Meq/L and 26 Meq/L and 27 Meq/L and 30 Meq/L and 31 Meq/L and 28 Meq/L and 29 Meq/L and 24 Meq/L
Tibc [2]: 337 µg/dL and 401 µg/dL and 353 µg/dL and 346 µg/dL and 309 µg/dL and 409 µg/dL and 351 µg/dL and 396 µg/dL and 388 µg/dL and 371 µg/dL and 299 µg/dL and 267 µg/dL and 357 µg/dL and 410 µg/dL and 392 µg/dL and 358 µg/dL and 376 µg/dL and 424 µg/dL and 347 µg/dL and 320 µg/dL
Tp [2]: 6.5 G/Dl and 6.7 G/Dl and 6.4 G/Dl and 6.8 G/Dl and 6.3 G/Dl and 6.9 G/Dl and 6.6 G/Dl and 6 G/Dl and 6.1 G/Dl and 6.2 G/Dl
Trig [2]: 66 Mg/Dl and 105 Mg/Dl and 88 Mg/Dl and 84 Mg/Dl and 101 Mg/Dl and 120 Mg/Dl and 124 Mg/Dl and 77 Mg/Dl and 61 Mg/Dl and 137 Mg/Dl and 20 Mg/Dl and 24 Mg/Dl and 50 Mg/Dl and 111 Mg/Dl and 31 Mg/Dl and 141 Mg/Dl and 27 Mg/Dl
Agap [3]: 15.1667 Meq/L
Alb [3]: 3.839 G/Dl
Alp [3]: 98.7222 Iu/L
Alt [3]: 44.8889 Iu/L
Ast [3]: 27.4444 Iu/L
Bun [3]: 14.2778 Mg/Dl
Ca [3]: 9.439 Mg/Dl
Chol [3]: 138.5 mg/dL
Ck [3]: 456.778 Iu/L
Cl [3]: 110.167 Meq/L
Crea [3]: 0.7289 Mg/Dl
Fe [3]: 141.278 µg/dL
Ggt [3]: 49.6667 Iu/L
Glob [3]: 3.072 G/Dl
Gluc [3]: 63.0556 Mg/Dl
K [3]: 3.633 Meq/L
Ldh [3]: 249.389 Iu/L
Na [3]: 148.5 Meq/L
Osmo [3]: 284.778 Mosm/Kg
Phos [3]: 2.8 Mg/Dl
Tbil [3]: 0.1683 Mg/Dl
Tco2 [3]: 26.8889 Meq/L
Tibc [3]: 368.167 µg/dL
Tp [3]: 6.906 G/Dl
Trig [3]: 81.6111 Mg/Dl
Agap [4]: 16 Meq/L and 17 Meq/L and 13 Meq/L and 15 Meq/L and 14 Meq/L
Alb [4]: 3.9 G/Dl and 3.6 G/Dl and 3.8 G/Dl and 3.4 G/Dl and 3.5 G/Dl and 4.3 G/Dl and 4.1 G/Dl and 3.7 G/Dl and 4 G/Dl
Alp [4]: 114 Iu/L and 109 Iu/L and 79 Iu/L and 146 Iu/L and 91 Iu/L and 93 Iu/L and 84 Iu/L and 108 Iu/L and 131 Iu/L and 72 Iu/L and 88 Iu/L and 136 Iu/L and 116 Iu/L and 65 Iu/L and 75 Iu/L and 90 Iu/L
Alt [4]: 46 Iu/L and 63 Iu/L and 42 Iu/L and 89 Iu/L and 50 Iu/L and 33 Iu/L and 67 Iu/L and 24 Iu/L and 27 Iu/L and 69 Iu/L and 29 Iu/L and 22 Iu/L and 35 Iu/L and 40 Iu/L and 55 Iu/L and 44 Iu/L and 56 Iu/L
Ast [4]: 40 Iu/L and 24 Iu/L and 28 Iu/L and 29 Iu/L and 25 Iu/L and 26 Iu/L and 33 Iu/L and 34 Iu/L and 20 Iu/L and 27 Iu/L and 15 Iu/L and 30 Iu/L and 23 Iu/L
Bun [4]: 15 Mg/Dl and 16 Mg/Dl and 13 Mg/Dl and 12 Mg/Dl and 14 Mg/Dl and 11 Mg/Dl and 20 Mg/Dl
Ca [4]: 9.7 Mg/Dl and 9.6 Mg/Dl and 9.1 Mg/Dl and 9.3 Mg/Dl and 9 Mg/Dl and 9.2 Mg/Dl and 10 Mg/Dl and 9.8 Mg/Dl and 9.5 Mg/Dl
Chol [4]: 180 mg/dL and 175 mg/dL and 134 mg/dL and 115 mg/dL and 124 mg/dL and 127 mg/dL and 158 mg/dL and 141 mg/dL and 125 mg/dL and 122 mg/dL and 138 mg/dL and 154 mg/dL and 140 mg/dL and 113 mg/dL and 133 mg/dL and 148 mg/dL and 151 mg/dL and 119 mg/dL
Ck [4]: 427 Iu/L and 338 Iu/L and 199 Iu/L and 479 Iu/L and 314 Iu/L and 233 Iu/L and 738 Iu/L and 1619 Iu/L and 353 Iu/L and 416 Iu/L and 382 Iu/L and 210 Iu/L and 648 Iu/L and 548 Iu/L and 237 Iu/L and 332 Iu/L and 197 Iu/L and 552 Iu/L and 206 Iu/L
Cl [4]: 110 Meq/L and 109 Meq/L and 111 Meq/L and 108 Meq/L and 107 Meq/L and 113 Meq/L and 112 Meq/L
Crea [4]: 0.56 Mg/Dl and 0.91 Mg/Dl and 0.71 Mg/Dl and 0.69 Mg/Dl and 0.85 Mg/Dl and 0.97 Mg/Dl and 0.62 Mg/Dl and 0.77 Mg/Dl and 0.78 Mg/Dl and 0.74 Mg/Dl and 0.76 Mg/Dl and 0.58 Mg/Dl and 0.65 Mg/Dl and 0.64 Mg/Dl and 0.68 Mg/Dl
Fe [4]: 185 µg/dL and 145 µg/dL and 129 µg/dL and 168 µg/dL and 126 µg/dL and 124 µg/dL and 150 µg/dL and 181 µg/dL and 159 µg/dL and 113 µg/dL and 170 µg/dL and 84 µg/dL and 111 µg/dL and 169 µg/dL and 125 µg/dL and 154 µg/dL and 155 µg/dL
Ggt [4]: 46 Iu/L and 64 Iu/L and 42 Iu/L and 53 Iu/L and 58 Iu/L and 67 Iu/L and 48 Iu/L and 30 Iu/L and 52 Iu/L and 31 Iu/L and 40 Iu/L and 35 Iu/L and 82 Iu/L and 37 Iu/L and 50 Iu/L and 65 Iu/L

Source: publication PMC9519446, “Discovery of an Orally Active Benzoxaborole Prodrug Effective in the Treatment of Chagas Disease in Non-human Primates” (Nature microbiology, 2022)
